Experimental data from patent publication US20070255357A1, “NASAL DECO[…] MICROBES” (Ondine International, Ltd., priority 2006, published 2007).

Experiments:
otitis externa [1] = experiment: Photodisinfection of otitis externa treatment site (Examples V to VII); assay type: in vivo
Procedure: A photosensitizing composition comprising of methylene blue at a concentration of about 0.1 wt % is applied to the otitis externa treatment site. Light at a wavelength range from about 650 nm to about 680 nm is applied to the photosensitizing composition located within the otitis externa treatment site for a period from about 6 minutes to about 10 minutes using a laser with power at about 80 mW. The otitis externa was ameliorated.
A photosensitizing composition comprising of methylene blue at a concentration range of from about 0.001 wt % to about 0.1 wt % is applied to the otitis externa treatment site. Light at a wavelength range from about 650 nm to about 680 nm is applied to the photosensitizing composition located within the treatment site for a period from about 1 minute to about 20 minutes using a laser with power at a range from about 50 mW to about 300 mW. The otitis externa was ameliorated.
A photosensitizing composition comprising of toluidine blue at a concentration range of from about 0.001% wt % to about 0.1 wt % is applied to the otitis externa treatment site. Light at a wavelength range from about 620 nm to about 650 nm is applied to the photosensitizing composition located within the otitis externa treatment site for a period from about 1 minute to about 20 minutes using a laser with power at a range from about 50 mW to about 300 mW. The otitis externa was ameliorated.
For Examples V to VII, it was shown that there is a general inverse relationship between (1) the photosensitizer concentration and (2) the photodisinfection treatment time and/or the amount of power required for the light source. For example, higher concentration of photosensitizer requires less treatment time and/or lower light source power. Conversely, lower concentration of photosensitizer requires longer treatment time and/or higher light source power. Also, less treatment time requires higher concentration of photosensitizer and/or higher light source power.

biofilms of MRSA = experiment: Photodisinfection of MRSA biofilms in vitro (methylene blue + Periowave laser); assay type: cell-based, Methicillin-resistant Staphylococcus aureus; conditions: biofilm; for reduction of MRSA: at least 0.02 wt % methylene blue, laser about 665-675 nm for at least 15 seconds (at least 2.25 J/cm^2)
Source text: (§1) Photodisinfection treatments using methods contemplated by the present invention have been tested against MRSA, Escherichia coli (E. coli), and Enterococcus fecalis (E. fecalis) in vitro and reached high levels of disinfection in within seconds to one minute. Photosensitizing composition comprising of methylene blue at various concentrations ranging from about 0.005 wt % to 0.1 wt % was applied to biofilms of MRSA, E. coli and E. fecalis for about ten seconds. These biofilms were then illuminated by a laser light system at a wavelength of about 665 nm to about 675 nm for a period from about 0 seconds to about 60 seconds (e.g., accumulated energy level of about 0 J/cm^2 to about 9 J/cm^2). The laser light system used was the Periowave™ system which includes a low-intensity laser with power at about 240 mW and the optical probe described in PCT Patent Publication No. WO2006115761.

biofilms of E. coli = experiment: Photodisinfection of E. coli biofilms in vitro (methylene blue + Periowave laser); assay type: cell-based, Escherichia coli; conditions: biofilm; for reduction of E. coli: at least 0.02 wt % methylene blue, laser about 665-675 nm for at least 15 seconds (at least 2.25 J/cm^2)
Source text: as §1

biofilms of E. fecalis = experiment: Photodisinfection of E. fecalis biofilms in vitro (methylene blue + Periowave laser); assay type: cell-based, Enterococcus fecalis; conditions: biofilm
Source text: as §1

MRSA biofilms = experiment: SEM evaluation of MRSA biofilms after photodisinfection; assay type: cell-based, Methicillin-resistant Staphylococcus aureus; conditions: about 0.1 wt % methylene blue, about 10 s contact; about 665-675 nm for about 30 seconds, Periowave laser; FIG. 34 vs FIG. 33
Procedure: (§2) Biofilms heavily colonized with one to four layers of MRSA organisms were contacted with a photosensitizing composition comprising methylene blue at a concentration of about 0.1 wt % for about 10 seconds and then illuminated at a wavelength of about 665 nm to about 675 nm for a period from about 30 seconds using the Periowave™ laser. Thereafter, these biofilms and the controlled MRSA biofilms (e.g., no photodisinfection treatment) were incubated overnight in 0.9 wt % saline and then fixed in 10 wt % Formalin for scanning electron microscope (SEM) evaluation.

E. coli biofilms = experiment: SEM evaluation of E. coli biofilms after photodisinfection; assay type: cell-based, Escherichia coli; conditions: about 0.1 wt % methylene blue, about 10 s contact; about 665-675 nm for about 30 seconds, Periowave laser; FIG. 36 vs FIG. 35
Procedure: as §2, with “to three” for “to four”, “of Escherichia coli (E. coli)” for “of MRSA”, “controlled E. coli” for “controlled MRSA”, “incubated for three hours” for “incubated overnight”, “in 0.9%” for “in 0.9 wt %”, “in 10%” for “in 10 wt %”

otitis externa [2] = experiment: Study on patients suffering otitis externa (photodisinfection); assay type: in vivo, human
Procedure: A study was conducted on patients suffering otitis externa. During the study, a photosensitizing composition comprising of methylene blue at a concentration of about 0.01 wt % was applied using a cotton swab to the treatment site as shown in FIG. 37. Thereafter and referring to FIGS. 38-39, light at a wavelength range from about 665 nm to about 675 nm was applied to the photosensitizing composition located within the treatment site 64 for a period from about 3 minutes to about 5 minutes (3-5 repetitive one minute cycles) using the Periowave™ laser light system.

[3] = methylene blue about 0.02-0.1 wt % and a low power laser (about 240 mW)

SMILES	outcome of otitis externa (otitis externa [1]; Example VII: about 0.001-0.1 wt % toluidine blue, about 620-650 nm for about 1-20 minutes, laser about 50-300 mW)	reduction of MRSA (biofilms of MRSA; about 10 s contact)	reduction of MRSA (biofilms of MRSA)	elimination of MRSA by photodisinfection (biofilms of MRSA; [3])	reduction of E. coli (biofilms of E. coli; about 10 s contact)	reduction of E. coli (biofilms of E. coli)	elimination of E. coli by photodisinfection (biofilms of E. coli; [3])	reduction of E. fecalis (biofilms of E. fecalis; at least 0.02 wt % methylene blue, laser about 665-675 nm for at least 15 seconds (at least 2.25 J/cm^2))	elimination of E. Fecalis by photodisinfection (biofilms of E. fecalis; [3])	reduction of MRSA in SEM photograph vs controlled biofilm (MRSA biofilms)	reduction of E. coli in SEM photograph vs controlled biofilm (E. coli biofilms)	outcome of severe otitis externa (otitis externa [2]; patients with severe otitis externa, about 2 to 5 additional treatments, same protocol, over about one to two weeks)	outcome of otitis externa (otitis externa [2]; patients, about 0.01 wt % methylene blue by cotton swab, about 665-675 nm for about 3-5 minutes, Periowave laser, many patients)	outcome of otitis externa (otitis externa [1]; Example V: about 0.1 wt % methylene blue, about 650-680 nm for about 6-10 minutes, laser about 80 mW)	outcome of otitis externa (otitis externa [1]; Example VI: about 0.001-0.1 wt % methylene blue, about 650-680 nm for about 1-20 minutes, laser about 50-300 mW)
Cc1cc2nc3ccc(N(C)C)cc3[s+]c2cc1N.[Cl-] [toluidine blue]	ameliorated														
CN(C)c1ccc2nc3ccc(=[N+](C)C)cc-3sc2c1 [methylene blue]		at least three	over 90%	effectively eliminated	at least three	over 90%	effectively eliminated	over 90%	effectively eliminated	substantial reduction of MRSA	substantial reduction of E. coli	also ameliorated	ameliorated	ameliorated	ameliorated
